Measurements from publication PMC5218480 (PLoS ONE, 2017).

System: MV-4-11 cells
Assay: Gene expression microarray analysis (Affymetrix PrimeView) and GSEA
Type: cell-based, human
Set-up: RFU PODN (11730768_x_at) / Fold change /veh PODN (11730768_x_at) / RFU LINC00158 (11744669_a_at) / Fold change /veh LINC00158 (11744669_a_at) / RFU DUSP10 (11751237_a_at) / Fold change /veh DUSP10 (11751237_a_at) / RFU ID3 (11757404_x_at) / Fold change /veh ID3 (11757404_x_at) / RFU PLEKHG5 (11737974_s_at) / Fold change /veh PLEKHG5 (11737974_s_at) / RFU LRRC4B (11730491_at) / Fold change /veh LRRC4B (11730491_at) / RFU GIMAP4 (11747438_a_at) / Fold change /veh GIMAP4 (11747438_a_at) / RFU KRT8 (11758183_x_at) / Fold change /veh KRT8 (11758183_x_at) / RFU CNN1 (11734310_a_at) / Fold change /veh CNN1 (11734310_a_at) / RFU VPS37D (11726825_at) / Fold change /veh VPS37D (11726825_at) / RFU C10orf10 (11716522_x_at) / Fold change /veh C10orf10 (11716522_x_at) / RFU KIR2DL2 /// KIR2DL4 /// KIR2DL5A /// KIR2DL5B /// KIR2DS1 /// KIR2DS2 /// KIR2DS3 /// KIR2DS4 /// KIR3DL3 /// KIR3DL3 /// KIR3DS1 (11738374_at) / Fold change /veh KIR2DL2 /// KIR2DL4 /// KIR2DL5A /// KIR2DL5B /// KIR2DS1 /// KIR2DS2 /// KIR2DS3 /// KIR2DS4 /// KIR3DL3 /// KIR3DL3 /// KIR3DS1 (11738374_at) / RFU C1QL1 (11718748_at) / Fold change /veh C1QL1 (11718748_at) / RFU TMPRSS4 (11747572_a_at) / Fold change /veh TMPRSS4 (11747572_a_at) / RFU HAMP (11756126_x_at) / Fold change /veh HAMP (11756126_x_at) / RFU RNFT2 (11725882_a_at) / Fold change /veh RNFT2 (11725882_a_at) / RFU NR4A2 (11747474_a_at) / Fold change /veh NR4A2 (11747474_a_at) / RFU ABCC12 (11746883_a_at) / Fold change /veh ABCC12 (11746883_a_at) / RFU TMEM136 (11760407_x_at) / Fold change /veh TMEM136 (11760407_x_at) / RFU CLDN22 /// WWC2 (11732394_at) / Fold change /veh CLDN22 /// WWC2 (11732394_at) / RFU HLA-DPB1 (11760878_x_at) / Fold change /veh HLA-DPB1 (11760878_x_at) / RFU SPINT1 (11716480_a_at) / Fold change /veh SPINT1 (11716480_a_at) / RFU GAP43 (11754022_s_at) / Fold change /veh GAP43 (11754022_s_at) / RFU A4GNT (11735810_at) / Fold change /veh A4GNT (11735810_at) / RFU PRB3 (11715151_x_at) / Fold change /veh PRB3 (11715151_x_at) / RFU TUBB4B (11761932_at) / Fold change /veh TUBB4B (11761932_at) / RFU CAPN14 (11732068_a_at) / Fold change /veh CAPN14 (11732068_a_at) / RFU TMCC2 (11721928_a_at) / Fold change /veh TMCC2 (11721928_a_at) / RFU IRGQ (11745062_a_at) / Fold change /veh IRGQ (11745062_a_at) / RFU FAM174B (11720279_a_at) / Fold change /veh FAM174B (11720279_a_at) / RFU TMPRSS4 (11748680_a_at) / Fold change /veh TMPRSS4 (11748680_a_at) / RFU FAM212B (11763350_a_at) / Fold change /veh FAM212B (11763350_a_at) / RFU PLEKHG5 (11743358_a_at) / Fold change /veh PLEKHG5 (11743358_a_at) / RFU ZSCAN30 (11745921_a_at) / Fold change /veh ZSCAN30 (11745921_a_at) / RFU CMKLR1 (11741424_a_at) / Fold change /veh CMKLR1 (11741424_a_at) / RFU LOC101060620 /// MAPK8IP1 (11723275_at) / Fold change /veh LOC101060620 /// MAPK8IP1 (11723275_at) / RFU SPTSSB (11747773_x_at) / Fold change /veh SPTSSB (11747773_x_at) / RFU PRSS12 (11739890_at) / Fold change /veh PRSS12 (11739890_at) / RFU BIN1 (11741810_x_at) / Fold change /veh BIN1 (11741810_x_at) / RFU WNT11 (11732464_a_at) / Fold change /veh WNT11 (11732464_a_at) / RFU C10orf10 (11716521_a_at) / Fold change /veh C10orf10 (11716521_a_at) / RFU C5orf56 (11738089_at) / Fold change /veh C5orf56 (11738089_at) / RFU CYB561 (11721691_x_at) / Fold change /veh CYB561 (11721691_x_at) / RFU ANKRD19P (11752326_a_at) / Fold change /veh ANKRD19P (11752326_a_at) / RFU OR2T12 /// OR2T33 /// OR2T8 (11738714_s_at) / Fold change /veh OR2T12 /// OR2T33 /// OR2T8 (11738714_s_at) / RFU VCAN (11748164_a_at) / Fold change /veh VCAN (11748164_a_at) / RFU JSRP1 (11732532_at) / Fold change /veh JSRP1 (11732532_at) / RFU KRTAP10-11 (11738290_x_at) / Fold change /veh KRTAP10-11 (11738290_x_at) / RFU MYO3A (11730013_a_at) / Fold change /veh MYO3A (11730013_a_at) / RFU EBF3 (11725865_a_at) / Fold change /veh EBF3 (11725865_a_at) / RFU CAMK2N1 (11719241_x_at) / Fold change /veh CAMK2N1 (11719241_x_at) / RFU C5orf56 (11738088_a_at) / Fold change /veh C5orf56 (11738088_a_at) / RFU OLFML3 (11715873_a_at) / Fold change /veh OLFML3 (11715873_a_at) / RFU LOC100653217 /// NTM (11731650_a_at) / Fold change /veh LOC100653217 /// NTM (11731650_a_at) / RFU MAPK11 (11762145_a_at) / Fold change /veh MAPK11 (11762145_a_at) / RFU FIZ1 (11724087_x_at) / Fold change /veh FIZ1 (11724087_x_at) / RFU OASL (11726364_x_at) / Fold change /veh OASL (11726364_x_at) / RFU SOX15 (11748057_x_at) / Fold change /veh SOX15 (11748057_x_at) / RFU CD79A (11719716_a_at) / Fold change /veh CD79A (11719716_a_at) / RFU HIST1H1D (11736915_at) / Fold change /veh HIST1H1D (11736915_at) / RFU CASKIN2 (11723855_a_at) / Fold change /veh CASKIN2 (11723855_a_at) / RFU LOC730098 (11760151_x_at) / Fold change /veh LOC730098 (11760151_x_at) / RFU OR4N2 (11742367_at) / Fold change /veh OR4N2 (11742367_at) / RFU PRRT2 (11749266_a_at) / Fold change /veh PRRT2 (11749266_a_at) / RFU SNX32 (11753110_a_at) / Fold change /veh SNX32 (11753110_a_at) / RFU CDHR5 (11726645_a_at) / Fold change /veh CDHR5 (11726645_a_at) / RFU RCAN1 (11760418_a_at) / Fold change /veh RCAN1 (11760418_a_at) / RFU FAM167A (11723789_a_at) / Fold change /veh FAM167A (11723789_a_at) / RFU FAM26E (11764081_at) / Fold change /veh FAM26E (11764081_at) / RFU ISYNA1 (11749810_s_at) / Fold change /veh ISYNA1 (11749810_s_at) / RFU ACY1 (11761880_at) / Fold change /veh ACY1 (11761880_at) / RFU 11764098_at / Fold change /veh 11764098_at / RFU SAMD14 (11745864_x_at) / Fold change /veh SAMD14 (11745864_x_at) / RFU NPB (11741838_a_at) / Fold change /veh NPB (11741838_a_at) / RFU TMPRSS6 (11731388_a_at) / Fold change /veh TMPRSS6 (11731388_a_at) / RFU KRTAP10-2 (11738614_at) / Fold change /veh KRTAP10-2 (11738614_at) / RFU ARHGAP8 /// PRR5-ARHGAP8 (11727945_x_at) / Fold change /veh ARHGAP8 /// PRR5-ARHGAP8 (11727945_x_at) / RFU KRTAP5-7 /// NADSYN1 (11734609_at) / Fold change /veh KRTAP5-7 /// NADSYN1 (11734609_at) / RFU RASL12 (11751679_a_at) / Fold change /veh RASL12 (11751679_a_at) / RFU CDKN2B (11736163_a_at) / Fold change /veh CDKN2B (11736163_a_at) / RFU PRF1 (11729649_at) / Fold change /veh PRF1 (11729649_at) / RFU, ZNF638 /// ZNF638-IT1 / Fold change vs veh, ZNF638 /// ZNF638-IT1 / RFU, PANK3 / Fold change vs veh, PANK3 / RFU, SH3YL1 / Fold change vs veh, SH3YL1 / RFU, ZEB2 / Fold change vs veh, ZEB2 / RFU, NRIP1 / Fold change vs veh, NRIP1 / RFU, PTTG1IP / Fold change vs veh, PTTG1IP / RFU, CAPN2 / Fold change vs veh, CAPN2 / RFU, MED14 / Fold change vs veh, MED14 / RFU, SNORA58 / Fold change vs veh, SNORA58 / RFU, C1orf63 / Fold change vs veh, C1orf63 / RFU, LRRFIP1 / Fold change vs veh, LRRFIP1 / RFU, NDUFAF7 / Fold change vs veh, NDUFAF7 / RFU, SLC12A2 / Fold change vs veh, SLC12A2 / RFU, IBTK / Fold change vs veh, IBTK / RFU, ESF1 / Fold change vs veh, ESF1 / Fold change vs veh, TMEM50B / RFU, TAOK1 / Fold change vs veh, TAOK1 / RFU, ACBD3 / Fold change vs veh, ACBD3 / RFU, TMA16 / Fold change vs veh, TMA16 / RFU, RWDD3 / Fold change vs veh, RWDD3 / RFU, BCAT1 / Fold change vs veh, BCAT1 / RFU, EDEM3 / Fold change vs veh, EDEM3 / RFU, TMEM33 / Fold change vs veh, TMEM33 / RFU, WDR75 / Fold change vs veh, WDR75 / RFU, AHCTF1 / Fold change vs veh, AHCTF1 / RFU, TFRC / Fold change vs veh, TFRC / RFU, ZDHHC17 / Fold change vs veh, ZDHHC17 / RFU, NOM1 / Fold change vs veh, NOM1 / RFU, ARL8B / Fold change vs veh, ARL8B / RFU, ZBTB11 / Fold change vs veh, ZBTB11 / RFU, TAMM41 / Fold change vs veh, TAMM41 / RFU, KIAA1704 /// LOC100996395 / Fold change vs veh, KIAA1704 /// LOC100996395 / RFU, ING1 / Fold change vs veh, ING1 / RFU, TRMT61B / Fold change vs veh, TRMT61B / RFU, FUBP3 / Fold change vs veh, FUBP3 / RFU, TP53 / Fold change vs veh, TP53 / RFU, TNKS2 / Fold change vs veh, TNKS2 / RFU, ZFP14 / Fold change vs veh, ZFP14 / RFU, ACTR2 / Fold change vs veh, ACTR2 / RFU, PPP3R1 / Fold change vs veh, PPP3R1 / RFU, PIK3R1 / Fold change vs veh, PIK3R1 / RFU, HNRNPA1 / Fold change vs veh, HNRNPA1 / RFU, RNF170 / Fold change vs veh, RNF170 / RFU, ZNF28 / Fold change vs veh, ZNF28 / RFU, RNGTT / Fold change vs veh, RNGTT / RFU, OGT / Fold change vs veh, OGT / RFU, BRD1 / Fold change vs veh, BRD1 / RFU, MARS / Fold change vs veh, MARS / RFU, ZNF655 / Fold change vs veh, ZNF655 / RFU, FAHD1 / Fold change vs veh, FAHD1 / RFU, BDP1 / Fold change vs veh, BDP1 / RFU, LRRCC1 / Fold change vs veh, LRRCC1 / RFU, ARID1A / Fold change vs veh, ARID1A / RFU, ZNF146 / Fold change vs veh, ZNF146 / RFU, ZNF330 / Fold change vs veh, ZNF330 / RFU, GPN3 / Fold change vs veh, GPN3 / RFU, C9orf123 / Fold change vs veh, C9orf123 / RFU, N4BP2L2 / Fold change vs veh, N4BP2L2 / RFU, ARFIP1 / Fold change vs veh, ARFIP1 / RFU, FAM179B / Fold change vs veh, FAM179B / RFU, BCL10 / Fold change vs veh, BCL10 / RFU, UHRF1BP1L / Fold change vs veh, UHRF1BP1L / RFU, BET1 / Fold change vs veh, BET1 / RFU, CNOT2 / Fold change vs veh, CNOT2 / RFU, ZNF268 / Fold change vs veh, ZNF268 / Fold change vs veh, ZNF507 / RFU, DGCR2 / Fold change vs veh, DGCR2 / RFU, WDSUB1 / Fold change vs veh, WDSUB1 / Fold change vs veh, HSP90B1 /// MIR3652 / RFU, ADSS / Fold change vs veh, ADSS / RFU, GK / Fold change vs veh, GK / RFU, ZNF148 / Fold change vs veh, ZNF148 / RFU, TAF9 / Fold change vs veh, TAF9 / RFU, SLC1A5 / Fold change vs veh, SLC1A5 / RFU, SLMO2 / Fold change vs veh, SLMO2 / RFU, ABCC4 / Fold change vs veh, ABCC4 / RFU, LOC101060439 /// RAP1B / Fold change vs veh, LOC101060439 /// RAP1B / RFU, RFX7 / Fold change vs veh, RFX7 / RFU, GTPBP10 / Fold change vs veh, GTPBP10 / RFU, CNEP1R1 / Fold change vs veh, CNEP1R1 / RFU, BIVM-ERCC5 /// ERCC5 / Fold change vs veh, BIVM-ERCC5 /// ERCC5 / RFU, ILF3 / Fold change vs veh, ILF3 / RFU 11762660_at / Fold change /veh 11762660_at / RFU VCAN (11757783_s_at) / Fold change /veh VCAN (11757783_s_at) / RFU DDX43 (11728927_at) / Fold change /veh DDX43 (11728927_at) / RFU KRT8 (11758188_x_at) / Fold change /veh KRT8 (11758188_x_at) / RFU NKD1 (11759106_at) / Fold change /veh NKD1 (11759106_at) / RFU SRD5A1 (11742802_a_at) / Fold change /veh SRD5A1 (11742802_a_at) / RFU TPSAB1 /// TPSB2 (11721975_s_at) / Fold change /veh TPSAB1 /// TPSB2 (11721975_s_at) / RFU GSTM3 (11746129_a_at) / Fold change /veh GSTM3 (11746129_a_at) / RFU IL23R (11737362_x_at) / Fold change /veh IL23R (11737362_x_at) / RFU TMEM51 (11727254_a_at) / Fold change /veh TMEM51 (11727254_a_at) / RFU PIWIL2 (11732686_x_at) / Fold change /veh PIWIL2 (11732686_x_at) / RFU ORM1 (11744905_x_at) / Fold change /veh ORM1 (11744905_x_at) / RFU CCDC152 (11743942_at) / Fold change /veh CCDC152 (11743942_at) / RFU ECM1 (11717891_a_at) / Fold change /veh ECM1 (11717891_a_at) / RFU IL23R (11748794_a_at) / Fold change /veh IL23R (11748794_a_at) / RFU TNFAIP8L3 (11732012_x_at) / Fold change /veh TNFAIP8L3 (11732012_x_at) / RFU MBOAT4 (11741988_at) / Fold change /veh MBOAT4 (11741988_at) / RFU 11764193_at / Fold change /veh 11764193_at / RFU TMEM53 (11763286_at) / Fold change /veh TMEM53 (11763286_at) / RFU MAGEB2 (11727129_at) / Fold change /veh MAGEB2 (11727129_at) / RFU TMEM200A (11744735_a_at) / Fold change /veh TMEM200A (11744735_a_at) / RFU CCDC152 (11751479_a_at) / Fold change /veh CCDC152 (11751479_a_at) / RFU FAM211A (11726209_a_at) / Fold change /veh FAM211A (11726209_a_at) / RFU RGS16 (11746705_a_at) / Fold change /veh RGS16 (11746705_a_at) / RFU VCAN (11755009_s_at) / Fold change /veh VCAN (11755009_s_at) / RFU RHOB (11743442_s_at) / Fold change /veh RHOB (11743442_s_at) / RFU RGS16 (11720943_a_at) / Fold change /veh RGS16 (11720943_a_at) / RFU RGS16 (11720944_at) / Fold change /veh RGS16 (11720944_at) / RFU, VPS4B / Fold change vs veh, VPS4B / RFU, CREB1 / Fold change vs veh, CREB1 / RFU, DNAJC13 / Fold change vs veh, DNAJC13 / RFU, GNAQ / Fold change vs veh, GNAQ / RFU, CDK5R1 / Fold change vs veh, CDK5R1 / RFU, ZRANB3 / Fold change vs veh, ZRANB3 / RFU, CUL4A / Fold change vs veh, CUL4A / RFU, CCNY / Fold change vs veh, CCNY / RFU, UFL1 / Fold change vs veh, UFL1 / RFU, COG3 / Fold change vs veh, COG3 / RFU, DIAPH2 / Fold change vs veh, DIAPH2 / RFU, SKA2 / Fold change vs veh, SKA2 / RFU, AFF3 / Fold change vs veh, AFF3 / RFU, LMF1 / Fold change vs veh, LMF1 / RFU, IPO11 / Fold change vs veh, IPO11 / RFU, DFFB / Fold change vs veh, DFFB / RFU, FOXP1 / Fold change vs veh, FOXP1 / RFU, CARD8 / Fold change vs veh, CARD8 / RFU, STRN3 / Fold change vs veh, STRN3 / RFU, ADK / Fold change vs veh, ADK / RFU, RASSF2 / Fold change vs veh, RASSF2 / RFU, WIPF1 / Fold change vs veh, WIPF1 / RFU, LARP1B / Fold change vs veh, LARP1B / RFU, RASA1 / Fold change vs veh, RASA1 / RFU, RB1 / Fold change vs veh, RB1 / RFU, PPFIA1 / Fold change vs veh, PPFIA1 / RFU, MAT2A / Fold change vs veh, MAT2A / RFU, CCT5 / Fold change vs veh, CCT5 / RFU, WDR92 / Fold change vs veh, WDR92 / RFU, CUX1 / Fold change vs veh, CUX1 / RFU, TTC7A / Fold change vs veh, TTC7A / RFU, TMEM135 / Fold change vs veh, TMEM135 / RFU, DEPTOR / Fold change vs veh, DEPTOR / RFU, CPM / Fold change vs veh, CPM / RFU, DNAJB6 / Fold change vs veh, DNAJB6 / RFU, CACNA2D3 / Fold change vs veh, CACNA2D3 / RFU, DTX4 / Fold change vs veh, DTX4 / RFU, TFCP2 / Fold change vs veh, TFCP2 / RFU, GMCL1 /// GMCL1P1 / Fold change vs veh, GMCL1 /// GMCL1P1 / RFU, AEBP2 / Fold change vs veh, AEBP2 / RFU, SNHG1 /// SNORD22 /// SNORD25 /// SNORD26 /// SNORD27 /// SNORD28 /// SNORD29 /// SNORD31 / Fold change vs veh, SNHG1 /// SNORD22 /// SNORD25 /// SNORD26 /// SNORD27 /// SNORD28 /// SNORD29 /// SNORD31 / Fold change (Aza/veh), C12orf56 (ProbeSet 11735607_a_at) / Fold change (ACY-1035/veh), C12orf56 (ProbeSet 11735607_a_at) / Fold change (Aza/veh), FGFR1OP (ProbeSet 11751329_s_at) / Fold change (ACY-1035/veh), FGFR1OP (ProbeSet 11751329_s_at) / Fold change (Aza/veh), VPS36 (ProbeSet 11739960_a_at) / Fold change (ACY-1035/veh), VPS36 (ProbeSet 11739960_a_at) / RFU SYPL1 (11715823_x_at) / Fold change /veh SYPL1 (11715823_x_at) / RFU IGFBP7 (11715501_s_at) / Fold change /veh IGFBP7 (11715501_s_at) / RFU REEP3 (11722064_at) / Fold change /veh REEP3 (11722064_at) / RFU IGLL1 (11728026_x_at) / Fold change /veh IGLL1 (11728026_x_at): dose or concentration left out as unconfirmed
Details: ProbeSet 11743929_at; LIST B

SMILES: Nc1ccc(-c2cccs2)cc1NC(=O)c1ccc2c(c1)cc(C1CC1)n2CCN1CCOCC1 [ACY-1035]
- RFU, UHRF1BP1L: 242.75 RFU
